Earlier results on one molecule are cited in US10034864B2, “1,2,5-oxadiazoles as inhibitors of indoleamine 2,3-dioxygenase” (Incyte Corporation, priority 2008, dated 2018).

One data set relates to LLC tumors. The settings on record: LLC tumors in C57Bl/6 mice, versus placebo (Friberg 2002).
The subject of another data set is P815 tumor. The settings on record: pre-immunized immune-competent mice challenged with tumor cells (Uyttenhove 2003).

Regarding `Cn1cc(C[C@H](N)C(=O)O)c2ccccc21` [Example 1-MT, 1-methyl-tryptophan], the formation of tumors entry in the data set with LLC tumors is “markedly delayed”. Also, the growth of tumors entry with P815 tumor was “inhibited”.
